Results: patent US7196083B2, “Heteropolycyclic inhibitors of protein kinases” (priority 2000, dated 2007)
Where two headings read alike, the source gives them in different places.

Experiments:
[1] = tested on: A-549 (human lung carcinoma); assay: [3H] thymidine uptake cell proliferation assay, A549; format: cell-based; settings: A459 cells, read-out: Cell Proliferation in A459 IC50 in nm
[2] = biological target: PKB, full-length recombinant bovine protein, alpha form (Bos taurus, UniProt Q01314); assay: PKB inhibition in vitro enzyme assay (radioactive phosphate incorporation, scintillation counting); format: biochemical; settings: for IC50: PKB in vitro enzyme assay, 15 min at room temperature
Chain of PKB, full-length recombinant bovine protein, alpha form (Q01314 whole entry): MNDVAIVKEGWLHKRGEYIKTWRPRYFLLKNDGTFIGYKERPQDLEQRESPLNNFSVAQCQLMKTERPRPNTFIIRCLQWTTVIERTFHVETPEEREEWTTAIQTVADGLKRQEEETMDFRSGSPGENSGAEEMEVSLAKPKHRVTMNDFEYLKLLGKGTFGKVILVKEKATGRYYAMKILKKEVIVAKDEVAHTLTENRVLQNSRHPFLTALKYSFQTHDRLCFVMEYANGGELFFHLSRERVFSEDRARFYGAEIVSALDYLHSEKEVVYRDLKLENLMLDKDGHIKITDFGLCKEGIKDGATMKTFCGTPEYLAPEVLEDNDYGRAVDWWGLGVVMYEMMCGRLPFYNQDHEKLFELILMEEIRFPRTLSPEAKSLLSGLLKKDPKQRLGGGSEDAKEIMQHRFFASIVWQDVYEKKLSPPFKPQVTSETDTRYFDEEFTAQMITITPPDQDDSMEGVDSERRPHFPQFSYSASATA

[3] = for comparison; cited from earlier work
U-87 (human glioma) = assay: [3H] thymidine uptake cell proliferation assay, U87; format: cell-based
Experimental: Compounds were added to culture at mid-logarithmic growth and incubated for 20 hours. (N=8 for the values+standard errors). […] Cell lines A-549 (human lung carcinoma), B16-F1 (murine melanoma), B16-F10 (murine melanoma), DU-145 (human […] carcinoma), LS-180 (human colon carcinoma), PC3 (human prostate carcinoma), SKOV-3 (human ovarian carcinoma), U-87 (human glioma), and NIH-3T3 (murine embryonic fibroblasts) were all cultured in DMEM supplemented with 10% fetal bovine serum. M3 murine melanoma cells were cultured in DMEM/F12 1:1, and HT-29 human colon carcinoma and LL2 Lewis Lung […] lung carcinoma were cultured in RPMI1640. All the foregoing cell lines were obtained from ATCC. All cells were passaged regularly using 0.25% Trypsin-EDTA in order to maintain cells at exponential growth for various experiments. LS 180 cells were passaged without trypsin and were physically scraped off the culture flasks. In vitro [^3H] thymidine uptake assay. Proliferation can be measured by quantifying the amount of [^3H] thymidine uptake into cells using a β-counter, and therefore is a well-established diagnostic tool to measure DNA synthesis within the cells. […] The cells were allowed to adhere to the plates via incubation at 37° C. in 5% CO2 for 12–14 hours. […] Then, 10 μL of the compound was added to the pre-existing 90 μL per well, and incubated further at 37° C. in 5% CO2 for 20 hours. To measure thymidine incorporation, cells were fixed onto the culture wells by slowly adding ¼^th volume of cold 50% TCA into each well (25 μL to each well) and incubated for 1–2 hours at 4° C. Wells were washed 5 times with tap water to remove any free [^3H] thymidine in the media, and air-dried completely at room temperature. Then, 100 μL of scintillation fluid was added to each well and the activity counted using a Wallac Microbeta Counter.

[4] = tested on: HT-29 human colon carcinoma; assay: [3H] thymidine uptake cell proliferation assay, HT29; format: cell-based; settings: read-out: Cell Proliferation Effects (IC50 (nM))
B16-F1 (murine melanoma) = assay: [3H] thymidine uptake cell proliferation assay, B16F1; format: cell-based; settings: Mus musculus, read-out: Cell Proliferation Effects (IC50 (nM))
[5] = tested on: NIH-3T3 (murine embryonic fibroblasts); assay: [3H] thymidine uptake cell proliferation assay, NIH3T3; format: cell-based; settings: Mus musculus; NIH3T3, non-tumorigenic cell line; read-out: Cell Proliferation Effects (IC50 (nM))
[6] = tested on: B16-F10 (murine melanoma); assay: [3H] thymidine uptake cell proliferation assay, B16F10; format: cell-based; settings: Mus musculus, read-out: Cell Proliferation Effects (IC50 (nM))
[7] = tested on: PC3 (human prostate carcinoma); assay: [3H] thymidine uptake cell proliferation assay, PC3; format: cell-based; settings: PC-3, read-out: Cell Proliferation Effects (IC50 (nM))
[8] = tested on: SKOV-3 (human ovarian carcinoma); assay: [3H] thymidine uptake cell proliferation assay, SKOV3; format: cell-based; settings: SK-OV-3, read-out: Cell Proliferation Effects (IC50 (nM))
DU-145 (human carcinoma) = assay: [3H] thymidine uptake cell proliferation assay, DU145; format: cell-based; settings: read-out: Cell Proliferation Effects (IC50 (nM))
[9] = tested on: LL2 Lewis Lung human lung carcinoma; assay: [3H] thymidine uptake cell proliferation assay, LL2; format: cell-based; settings: LL/2, read-out: Cell Proliferation Effects (IC50 (nM))
M3 murine melanoma cells = assay: [3H] thymidine uptake cell proliferation assay, M3; format: cell-based; settings: Mus musculus, read-out: Cell Proliferation Effects (IC50 (nM))
[10] = U87, read-out: Cell Proliferation IC50 in nm (starred: tested in U7 cells, not U87), read-out: Cell Proliferation IC50 in nm (starred: tested in U7 cells, not A459)

| IC50 [1] | IC50 [2] | Structure (SMILES) | also measured |
| --- | --- | --- | --- |
| > 10 µM | > 100 µM | c1ccc(N/N=C2/c3ccccc3-c3nc4nnnn4nc32)cc1 [KP-23172-024] | – |
| > 10 µM | > 100 µM | O=C(c1ccccc1)c1ccc2nc3c(nc2c1)-c1ccccc1C3=O [KP-23172-003] | – |
| > 10 µM | > 100 µM | O=C(O)c1ccc2nc3c(nc2c1)-c1ccccc1C3=O [KP-23172-002] | – |
| > 10 µM | > 100 µM | c1ccc2c(c1)Cc1nn3nnnc3nc1-2 [KP-23172-008] | – |
| 0.046 µM | 20 µM | COc1ccc2c(c1)-c1nc3nnnn3nc1C2=O [KP-23172-030] | – |
| – | > 100 µM | c1ccc(N/N=C2\C(=N/Nc3ccccc3)Nc3ccccc32)cc1 [KP-23172-025] | – |
| – | – | Clc1ccc(COC(Cn2ccnc2)c2ccc(Cl)cc2Cl)c(Cl)c1 (centres unmarked) [miconazole] | 1:1 binding constant (reported in the literature) [3]: 363 |
| > 10 µM | > 100 µM | Cc1cc2nc3c(nc2cc1C)-c1ccccc1C3=O [KP-23172-007] | – |
| > 10 µM | > 100 µM | O=C1c2ccccc2-c2nc3cc(Cl)c(Cl)cc3nc21 [KP-23172-006] | – |
| > 10 µM | > 100 µM | O=C1c2ccccc2-c2nc3c(O)nc(O)nc3nc21 [KP-23172-004] | – |
| – | > 100 µM | Oc1ncnc2nc3c(nc12)CCc1ccccc1-3 [KP-23172-010] | – |
| – | > 100 µM | Oc1cccc2nc3c(nc12)CCc1ccccc1-3 [KP-23172-012] | – |
| > 10 µM | > 100 µM | O=C1c2ccccc2-c2nc3c(nc21)CCCC3 [KP-23172-015] | – |
| – | > 100 µM | O=C1c2ccccc2-c2nccnc21 [KP-23172-016] | – |
| – | > 100 µM | c1ccc2c(c1)[nH]c1nn3nnnc3nc12 [KP-23172-018] | IC50 (U-87 (human glioma); [10]): > 10000 nM |
| – | > 100 µM | Cc1cc2nc3c(nc2cc1C)-c1ccccc1CC3 [KP-23172-013] | – |

| IC50 [1] | IC50 [2] | Structure (SMILES) | also measured |
| --- | --- | --- | --- |
| – | > 100 µM | c1ccc2c(c1)CCc1nc3nnnn3nc1-2 [KP-23172-011] | – |
| – | > 100 µM | N#Cc1nc2c(nc1C#N)-c1ccccc1C2=O [KP-23172-019] | IC50 (U-87 (human glioma); [10]): > 10000 nM |
| > 10 µM | > 100 µM | Cc1ccc2nc3c(nc2c1)C(=O)c1ccccc1-3 [KP-23172-029] | – |
| > 10 µM | 15 µM | O=C1c2ccccc2-c2nn3nnnc3nc21 [KP-17483] | IC50 [4]: 500 nM; IC50 (B16-F1 (murine melanoma)): 80 nM; IC50 [5]: 200 nM; IC50 [6]: 750 nM; IC50 [7]: 250 nM; PKB inhibition in in vitro enzyme assay (in words) [2]: found to inhibit PKB; IC50 [8]: 300 nM; IC50 (DU-145 (human carcinoma)): 50 nM; IC50 (U-87 (human glioma); U-87 MG, U87, read-out: Cell Proliferation Effects (IC50 (nM))): 50 nM; IC50 [9]: 750 nM; IC50 (M3 murine melanoma cells): 30 nM |
| > 10 µM | > 100 µM | O=C1c2ccccc2-c2nc3c(O)ncnc3nc21 [KP-23172-009] | – |
| > 10 µM | > 100 µM | Cn1c(=O)c2nc3c(nc2n(C)c1=O)C(=O)c1ccccc1-3 [KP-23172-005] | – |
| – | > 100 µM | O=C1c2ccccc2-c2nc3cc4ccccc4cc3nc21 [KP-23172-026] | – |
| > 10 µM | > 100 µM | O=C(O)c1nc2c(nc1C(=O)O)-c1ccccc1C2=O [KP-23172-021] | – |
| – | > 100 µM | O=c1c2ccccc2c2nc3c(=S)nc(S)c3nc12 [KP-23172-022] | IC50 (U-87 (human glioma); [10]): 5000 nM |
| 0.1 µM | > 100 µM | O=C1c2cc3ccccc3cc2-c2nc3nnnn3nc21 [KP-23172-020] | – |
| 0.5 µM | > 100 µM | N#CC(=O)N/N=C1/c2ccccc2-c2nc3nnnn3nc21 [KP-23172-027] | – |
| – | > 100 µM | O=C1c2ccccc2-c2nc3c4ccccc4c4ccccc4c3nc21 [KP-23172-31] | – |
| – | > 100 µM | Cc1cc2nc3c(nc2cc1C)-c1ccccc1/C3=N\Nc1ccccc1 [KP-23172-017] | – |
| > 10 µM | > 100 µM | Cc1ccc2nc3c(nc2c1)-c1ccccc1C3=O [KP-23172-028] | – |
| 0.5 µM | > 100 µM | N/N=C1/c2ccccc2-c2nc3nnnn3nc21 [KP-23172-023] | – |
| > 10 µM | > 100 µM | O=C1c2ccccc2-c2nc3c(O)cccc3nc21 [KP-23172-001] | – |
